{"source": "patent US20070123548A1", "about": "“Pth agonists” (priority 2004, published 2007)", "origin": "cited, not measured here", "conditions": "daily subcutaneous injection for up to 2 years"}
{"compound": "CC[C@H](C)[C@H](NC(=O)[C@H](CCC(=O)O)NC(=O)[C@H](CO)NC(=O)[C@@H](NC(=O)[C@@H](N)CO)C(C)C)C(=O)N[C@@H](CCC(N)=O)C(=O)N[C@@H](CC(C)C)C(=O)N[C@@H](CCSC)C(=O)N[C@@H](Cc1cnc[nH]1)C(=O)N[C@@H](CC(N)=O)C(=O)N[C@@H](CC(C)C)C(=O)NCC(=O)N[C@@H](CCCCN)C(=O)N[C@@H](Cc1cnc[nH]1)C(=O)N[C@@H](CC(C)C)C(=O)N[C@@H](CC(N)=O)C(=O)N[C@@H](CO)C(=O)N[C@@H](CCSC)C(=O)N[C@@H](CCC(=O)O)C(=O)N[C@@H](CCCN=C(N)N)C(=O)N[C@H](C(=O)N[C@@H](CCC(=O)O)C(=O)N[C@@H](Cc1c[nH]c2ccccc12)C(=O)N[C@@H](CC(C)C)C(=O)N[C@@H](CCCN=C(N)N)C(=O)N[C@@H](CCCCN)C(=O)N[C@@H](CCCCN)C(=O)N[C@@H](CC(C)C)C(=O)N[C@@H](CCC(N)=O)C(=O)N[C@@H](CC(=O)O)C(=O)N[C@H](C(=O)N[C@@H](Cc1cnc[nH]1)C(=O)N[C@@H](CC(N)=O)C(=O)N[C@@H](Cc1ccccc1)C(=O)O)C(C)C)C(C)C", "note": "[PTH(1-34)]", "values": [{"measurement": "Reduction of fracture incidence at non-vertebral sites", "result": 40, "unit": "%"}, {"measurement": "Reduction of fracture incidence at the spine", "result": 65, "unit": "%"}]}
